Assay [1] addresses Human CB1R (Cannabinoid receptor 1) (Homo sapiens, UniProt P21554). The experiment in a line: CB-1 in vitro cAMP (HTRF) assay. Particulars: HEK cells, cAMP HTRF, 250 nM forskolin; mean where tested more than once; read-out: CB1 HEK_cAMP EC50. The class given is cell-based. Summed up: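 Intracellular cAMP from HTRF ratio (d2-cAMP vs Eu-cryptate anti-cAMP), converted to nM via per-plate standards, in stable human CB1R HEK-293 cells.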

Assay [2] deals with Human CB2R (Cannabinoid receptor 2) (Homo sapiens, UniProt P34972). In words: CB-2 in vitro cAMP (HTRF) assay. The class given is cell-based. Particulars: HEK cells, cAMP HTRF, 250 nM forskolin; mean where tested more than once; read-out: CB2 HEK_cAMP EC50. Summed up:
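HEK-293 cells stably expressing receptor, plated overnight at 4E5 cells/mL, tested with 1/3 serial dilutions of compound in HBSS/HEPES/BSA buffer with 0.5 mM IBMX and forskolin (diluted to 1.5 μM in buffer). cAMP measured by competitive HTRF immunoassay (d2-cAMP, cryptate anti-cAMP), signal inversely proportional to cAMP.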

Human CB1R (Cannabinoid receptor 1), sequence (P21554 whole entry): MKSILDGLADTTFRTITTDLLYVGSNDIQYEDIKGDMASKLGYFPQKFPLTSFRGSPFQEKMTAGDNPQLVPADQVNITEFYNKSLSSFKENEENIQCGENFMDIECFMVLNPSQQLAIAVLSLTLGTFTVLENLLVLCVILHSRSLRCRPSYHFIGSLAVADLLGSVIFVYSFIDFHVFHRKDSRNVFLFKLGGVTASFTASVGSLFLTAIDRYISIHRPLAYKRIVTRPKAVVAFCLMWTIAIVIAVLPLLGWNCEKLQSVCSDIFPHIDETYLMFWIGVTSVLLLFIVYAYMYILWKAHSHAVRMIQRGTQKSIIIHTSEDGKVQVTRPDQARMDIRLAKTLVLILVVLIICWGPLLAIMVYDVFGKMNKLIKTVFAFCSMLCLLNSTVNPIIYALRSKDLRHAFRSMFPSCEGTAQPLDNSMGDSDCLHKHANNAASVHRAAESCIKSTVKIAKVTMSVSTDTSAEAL
Human CB2R (Cannabinoid receptor 2), sequence (P34972 whole entry): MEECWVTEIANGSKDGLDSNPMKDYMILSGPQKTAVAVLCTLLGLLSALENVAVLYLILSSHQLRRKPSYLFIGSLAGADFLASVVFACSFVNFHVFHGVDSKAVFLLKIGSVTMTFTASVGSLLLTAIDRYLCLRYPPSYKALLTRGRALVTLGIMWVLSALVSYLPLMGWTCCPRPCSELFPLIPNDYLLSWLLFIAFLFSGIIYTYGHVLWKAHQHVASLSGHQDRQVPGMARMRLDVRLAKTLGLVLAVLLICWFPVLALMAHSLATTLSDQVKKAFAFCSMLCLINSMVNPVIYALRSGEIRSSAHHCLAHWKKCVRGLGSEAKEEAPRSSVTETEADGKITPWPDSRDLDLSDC

Consider `NC(=O)c1ccc(CN2CCC(n3c(C4CC4)nc4ccc(C(c5ccc(Cl)cc5)c5ccc(Cl)cc5)cc43)CC2)o1` [Example 131], for which the 50% effective concentration (EC50) in assay [1] came out at 8 nM; in assay [2] it was 6500 nM.

For the compound `O=S(=O)(N1CCC(n2c(C3CC3)nc3ccc(C(O)(c4ccc(Cl)cc4)c4ccc(Cl)cc4)cc32)CC1)C(F)(F)F` [Example 303], the half-maximal effective concentration (EC50) in assay [1] was 17.4 nM; in assay [2], greater than 10000 nM.

Take `NC(=O)c1cccc(CN2CCC(n3c(C4CC4)nc4ccc(C(c5ccc(Cl)cc5)c5ccc(Cl)cc5)cc43)CC2)c1` [Example 141]: the EC50 in assay [1] is 3.3 nM; in assay [2], greater than 10000 nM.

Take `Oc1ccc(Cn2c(C3CC3)nc3ccc(C(c4ccc(Cl)cc4)c4ccc(Cl)cc4)cc32)cc1` [Example 183]: the values for the EC50 in assay [1] and in assay [2] were 31.4 nM and 6300 nM, respectively.

With `CCCc1nc2ccc(C(c3ccc(Cl)cc3)c3nccs3)cc2n1C1CCN(C(=O)OCC)CC1` (centres unmarked) [Example 416], the concentration for a half-maximal effect (EC50) in assay [1] was 392 nM; in assay [2] it was greater than 10000 nM.

For the compound `CCOC(=O)c1nc2ccc(C(c3ccc(Cl)cc3)c3nccs3)cc2n1-c1cccc(Cl)c1` (centres unmarked) [Example 429], the EC50 in assay [1] is 437 nM; in assay [2], greater than 10000 nM.

On to `O=C(O)c1cccc(S(=O)(=O)N[C@H]2CC[C@H](n3c(C4CC4)nc4ccc(C(c5ccc(Cl)cc5)c5ccc(Cl)cc5)cc43)CC2)c1` [Example 22], for which the figures for the EC50 in assay [1] and in assay [2] were 89 nM and 1520 nM, respectively.

On to `NC(=O)c1ccc(C(=O)N2CCC(n3c(C4CC4)nc4ccc(C(c5ccc(Cl)cc5)c5ccc(Cl)cc5)cc43)CC2)cc1` [Example 254], for which the results for the concentration for a half-maximal effect (EC50) in assay [1] and in assay [2] were 36.6 nM and 1250 nM, respectively.

With `CC(C)c1nc2ccc(C(c3ccc(Cl)cc3)c3nccs3)cc2n1C1CCN(S(=O)(=O)C(F)(F)F)CC1` (centres unmarked) [Example 397], the EC50 in assay [1] and in assay [2] was greater than 10000 nM throughout.

Consider `CC(C)(C)OC(=O)N1CC(c2nc3ccc(C(c4ccc(Cl)cc4)c4nccs4)cc3n2CCc2cccc(Cl)c2)C1` (centres unmarked) [Example 406], for which the results for the EC50 in assay [1] and in assay [2] were 1690 nM and greater than 10000 nM, respectively.

As for `O=C(O)CS(=O)(=O)N1CCC(n2c(C3CC3)nc3ccc(C(c4ccc(Cl)cc4)c4ccc(Cl)cc4)cc32)CC1` [Example 248], the results for the EC50 in assay [1] and in assay [2] were 4240 nM and greater than 10000 nM, respectively.

In the case of `NC(=O)c1ccc(S(=O)(=O)N2CCC(n3c(C4CC4)nc4ccc(C(CO)(c5ccc(Cl)cc5)c5ccc(Cl)cc5)cc43)CC2)cc1Cl` [Example 212], the 50% effective concentration (EC50) in assay [1] was 3740 nM; in assay [2], greater than 10000 nM.

`O=C(O)c1cccc(OCCn2c(C3CC3)nc3ccc(C(c4ccc(Cl)cc4)c4ccc(Cl)cc4)cc32)c1` [Example 23]: the EC50 in assay [1] worked out at 182 nM; in assay [2], 1880 nM.

Turning to `O=S(=O)(N1CCC(n2c(C3CC3)nc3ccc(C(CO)(c4ccc(Cl)cc4)c4ccc(Cl)cc4)cc32)CC1)C(F)(F)F` [Example 245], the 50% effective concentration (EC50) is 283 nM in assay [1] and greater than 10000 nM in assay [2].

As to `CS(=O)(=O)N1CCC(n2c(C3CC3)nc3ccc(C(c4ccc(Cl)cc4)c4ccc(Cl)cc4)cc32)CC1` [Example 270], the figures for the concentration giving a half-maximal response (EC50) in assay [1] and in assay [2] were 6.6 nM and 9900 nM, respectively.

As to `Clc1ccc(C(c2ccc(Cl)cc2)c2ccc3nc(C4CC4)n(CCc4ccc(Br)cc4)c3c2)cc1` [Example 27], the EC50 in assay [1] was 11 nM; in assay [2], greater than 10000 nM.

On to `CCc1nc2ccc(C(c3ccc(Cl)cc3)c3ccc(Cl)cc3)cc2n1CCc1cccc(Cl)c1` [Example 311], for which the EC50 was 17.2 nM in assay [1] and 8600 nM in assay [2].

`O=C(NC1CCCC1)N1CCC(n2c(C3CC3)nc3ccc(C(c4ccc(Cl)cc4)c4ccc(Cl)cc4)cc32)CC1` [Example 74]: the EC50 came out at 70.6 nM in assay [1] and 5390 nM in assay [2].

Consider `COc1cc(S(=O)(=O)N2CCC(n3c(C4CC4)nc4ccc(C(CO)(c5ccc(Cl)cc5)c5ccc(Cl)cc5)cc43)CC2)ccc1C(N)=O` [Example 192], for which the 50% effective concentration (EC50) was 5050 nM in assay [1] and greater than 10000 nM in assay [2].

As to `O=C(O)c1cccc(CN2CCC(n3c(C4CC4)nc4ccc(C(c5ccc(F)cc5)c5ccc(F)cc5)cc43)CC2)c1` [Example 97], the EC50 in assay [1] is 18.7 nM; in assay [2] it was greater than 10000 nM.

`Cc1nc2ccc(C(c3ccc(Cl)cc3)c3nccs3)cc2n1C1CCN(S(=O)(=O)C(F)(F)F)CC1` (centres unmarked) [Example 386]: the EC50 was 22 nM in assay [1] and greater than 10000 nM in assay [2].

Consider `CCOC(=O)N1CCC(n2c(C(C)(C)C)nc3ccc(C(c4ccc(Cl)cc4)c4nccs4)cc32)CC1` (centres unmarked) [Example 408], for which the EC50 is 3150 nM in assay [1] and greater than 10000 nM in assay [2].

As for `O=S(=O)(c1ccc(F)cc1)N1CCC(n2c(C3CC3)nc3ccc(C(c4ccc(Cl)cc4)c4ccc(Cl)cc4)cc32)CC1` [Example 282], the half-maximal effective concentration (EC50) is 7.3 nM in assay [1] and greater than 10000 nM in assay [2].

For the compound `NC(=O)c1ccc(CN2CCC(n3c(C4CC4)nc4ccc(C(c5ccc(Cl)cc5)c5ccc(Cl)cc5)cc43)CC2)cn1` [Example 105], the EC50 in assay [1] stood at 5.1 nM; in assay [2], 8000 nM.

As for `O=C(O)c1cnc(N2CCC(Cn3c(C4CC4)nc4ccc(C(c5ccc(Cl)cc5)c5ccc(Cl)cc5)cc43)CC2)nc1` [Example 4], the concentration giving a half-maximal response (EC50) in assay [1] was determined as 9.8 nM; in assay [2], 2160 nM.

On to `CCOC(=O)COc1ccc(Cn2c(C3CC3)nc3ccc(C(c4ccc(Cl)cc4)c4ccc(Cl)cc4)cc32)cc1` [Example 175], for which the half-maximal effective concentration (EC50) in assay [1] came out at 5420 nM; in assay [2], 4750 nM.

As to `Clc1ccc(C(c2ccc(Cl)cc2)c2ccc3nc(C4CC4)n(CCc4cccc(Br)c4)c3c2)cc1` [Example 20], the EC50 was 15.6 nM in assay [1] and greater than 10000 nM in assay [2].

As to `COc1cc(S(=O)(=O)N2CCC(n3c(C4CC4)nc4ccc(C(CO)(c5ccc(Cl)cc5)c5ccc(Cl)cc5)cc43)CC2)ccc1C(=O)O` [Example 193], the EC50 in assay [1] and in assay [2] was greater than 10000 nM each time.

For `O=C(CO)N1CCC(n2c(C3CC3)nc3ccc(C(c4ccc(Cl)cc4)c4ccc(Cl)cc4)cc32)CC1` [Example 240], the EC50 worked out at 14.9 nM in assay [1] and 2100 nM in assay [2].

In the case of `O=C(O)c1ccc(S(=O)(=O)N2CCC(n3c(C4CC4)nc4ccc(C(CO)(c5ccc(Cl)cc5)c5ccc(Cl)cc5)cc43)CC2)cc1` [Example 228], the EC50 in assay [1] was 8300 nM; in assay [2] it was greater than 10000 nM.

On to `NC(=O)c1csc(CN2CCC(n3c(C4CC4)nc4ccc(C(c5ccc(Cl)cc5)c5ccc(Cl)cc5)cc43)CC2)c1` [Example 127], for which the half-maximal effective concentration (EC50) was 5 nM in assay [1] and greater than 10000 nM in assay [2].

As for `COC(=O)c1cccc(-n2c(C3CC3)nc3ccc(C(c4ccc(Cl)cc4)c4ccc(Cl)cc4)cc32)c1` [Example 174], the EC50 in assay [1] is 6550 nM; in assay [2], greater than 10000 nM.

Take `O=C(O)c1cccc(CN2CCC(n3c(C4CC4)nc4ccc(C(c5ccc(Cl)cc5)c5ccc(Cl)cc5)cc43)CC2)c1O` [Example 79]: the EC50 in assay [1] came to 32.6 nM; in assay [2] it was 5090 nM.

On to `O=C(NCCO)c1ccc(S(=O)(=O)N2CCC(n3c(C4CC4)nc4ccc(C(c5ccc(Cl)cc5)c5ccc(Cl)cc5)cc43)CC2)cn1` [Example 204], for which the EC50 in assay [1] is 94.4 nM; in assay [2], greater than 10000 nM.

As to `COc1ccccc1S(=O)(=O)N1CCC(n2c(C3CC3)nc3ccc(C(c4ccc(Cl)cc4)c4ccc(Cl)cc4)cc32)CC1` [Example 275], the half-maximal effective concentration (EC50) in assay [1] was 1.6 nM; in assay [2] it was greater than 10000 nM.

With `Oc1cccc(-n2c(C3CC3)nc3ccc(C(c4ccc(Cl)cc4)c4ccc(Cl)cc4)cc32)c1` [Example 180], the EC50 in assay [1] is 17.1 nM; in assay [2], greater than 10000 nM.

As for `CCOC(=O)COc1cccc(Cn2c(C3CC3)nc3ccc(C(c4ccc(Cl)cc4)c4ccc(Cl)cc4)cc32)c1` [Example 144], the EC50 in assay [1] was determined as 15.2 nM; in assay [2] it was 4700 nM.

Regarding `COc1cc(S(=O)(=O)N2CCC(n3c(C4CC4)nc4ccc(C(c5ccc(Cl)cc5)c5ccc(Cl)cc5)cc43)CC2)ccc1C(N)=O` [Example 250], the half-maximal effective concentration (EC50) stood at 2.9 nM in assay [1] and 9400 nM in assay [2].

Regarding `CCc1nc2ccc(C(c3ccc(Cl)cc3)c3ccc(Cl)cc3)cc2n1CC(C)c1ccccc1` (single isomer, unassigned) [Example 312], the EC50 in assay [1] was determined as 49.2 nM; in assay [2] it was 1500 nM.

With `O=C(c1cn[nH]n1)N1CCC(n2c(C3CC3)nc3ccc(C(c4ccc(Cl)cc4)c4ccc(Cl)cc4)cc32)CC1` [Example 199], the EC50 in assay [1] is 173 nM; in assay [2], 6500 nM.

Regarding `O=C(O)c1ccc(Cn2c(C3CC3)nc3ccc(C(c4ccc(Cl)cc4)c4ccc(Cl)cc4)cc32)cc1` [Example 132], the concentration for a half-maximal effect (EC50) in assay [1] and in assay [2] was greater than 10000 nM in each case.

With `COC(=O)CN1CCC(n2c(C3CC3)nc3ccc(C(c4ccc(Cl)cc4)c4ccc(Cl)cc4)cc32)CC1` [Example 64], the EC50 in assay [1] stood at 2.6 nM; in assay [2], 2350 nM.

`CNC(=O)c1cccc(S(=O)(=O)N2CCC(n3c(C4CC4)nc4ccc(C(c5ccc(Cl)cc5)c5ccc(Cl)cc5)cc43)CC2)c1` [Example 186]: the concentration for a half-maximal effect (EC50) is 25.3 nM in assay [1] and greater than 10000 nM in assay [2].

On to `O=C(O)c1ccc(S(=O)(=O)N2CCC(Cn3c(C4CC4)nc4ccc(C(c5ccc(Cl)cc5)c5ccc(Cl)cc5)cc43)CC2)cc1` [Example 15], for which the concentration giving a half-maximal response (EC50) in assay [1] came to 73 nM; in assay [2], 700 nM.

Consider `CCNC(=O)N1CCC(n2c(C3CC3)nc3ccc(C(c4ccc(Cl)cc4)c4ccc(Cl)cc4)cc32)CC1` [Example 73], for which the 50% effective concentration (EC50) stood at 18.5 nM in assay [1] and 5250 nM in assay [2].

As for `Clc1ccc(C(c2ccc3nc(-c4ccoc4)n(-c4cccc(Cl)c4)c3c2)c2nccs2)cc1` (centres unmarked) [Example 376], the EC50 in assay [1] is 441 nM; in assay [2], 272 nM.

The term EC50 denotes the concentration needed to bring the measured effect to its halfway point.

(Values after US20190031618A1, “BENZIMIDAZOLE DERIVATIVES USEFUL AS CB-1 INVERSE AGONISTS” (Janssen Pharmaceutica NV, priority 2015, published 2019).)
